Experimental data as given in patent publication US20140096445A1, “METHOD OF CULTIVATION IN WATER DEFICIT CONDITIONS” (SYNGENTA PARTICIPATIONS AG, priority 2011, published 2014).
Marks after values point to notes of the source that are not given here.

Legend:
Assay type in all cases: in vivo
[1] = test system: corn; assay: Greenhouse subsurface drip irrigation trial, deficit irrigated, Examples 4-8; conditions: for % Yield Increase by Product over Untr./50% Irr. / Yield: SDI chemigated at V3/V4, 50% irrigated deficit, Azoxystrobin 261, PPZ 126, TXP 250, PBZ 12.5, TMX 70 gai/ha; for Yield compared with the control, in words: water stress regime (50% irrigated), SDI
Procedure: (§1) A greenhouse subsurface drip irrigation trial was conducted on corn to evaluate treatment effects on yield in fully irrigated vs. deficit irrigated conditions. In this experiment, standardized growth conditions were applied across all corn treatments including: soil-water availability, soil texture and composition, soil chemical and physical properties, meteorological and environmental parameters, and plant nutrition in a greenhouse. No indication of plant disease or pest damage was observed over the course of the study and no pest management program was necessary. A homogeneous sand-organic matter soil mixture (0.18% organic matter) was used as the growth medium in 55-gal containers. These containers were used as a weighing lysimeter, where daily changes in system weight were used to calculate plant transpiration. Four corn plants were grown in each 55-gal container. Three 55-gal containers (12 plants total) made up each treatment. All irrigation and chemical treatments were applied via sub-surface irrigation. Chemical treatments consisted of: azoxystrobin (Quadris), paclobutrazol (Trimmit), trinexapac-ethyl (Moddus), and propiconazole (Tilt) at maximum labeled rates.
(§2) Corn plants were grown from seed and transplanted in the 55-gal drums approximately 14 days after planting. Uniform adequate irrigation was applied up to growth stage V3/V4 to ensure plant establishment. Chemical treatment applications were applied at growth stage V3/V4 via sub-surface chemigation. At stage V3/V4, irrigation was decreased to replicate deficit water conditions across all treatments for the remainder of the study period. Irrigation was managed daily to maintain 50% plant-available water. Visual signs of abiotic plant stress were observed approximately 30 days after chemical application. All corn plants were grown to yield and cobs were harvested when kernels were uniformly dry (15% moisture content). Root architecture, specifically relative number of fine roots, was measured at within 2 weeks of harvest using a digital imaging technique. Fine roots are related to water uptake productivity, which is directly tied to the ability of the plant to access soil-water under stress.

[2] = test system: corn; assay: Greenhouse sub-surface chemigation, yield and root architecture under deficit water, Examples 20-23; conditions: for Yield (% difference from UTC) / Relative number of fine roots (% difference from UTC): sub-surface chemigation at V3/V4, maximum labeled rates, 50% plant-available water; for Relative number of fine roots (% difference from UTC): within 2 weeks of harvest
Excerpt: as §1, with “In” for “A greenhouse subsurface drip irrigation trial was conducted on corn to evaluate treatment effects on yield in fully irrigated vs. deficit irrigated conditions. In”
as §2

[3] = test system: soybean; assay: Sprinkler irrigation field study on soybean yield, deficit vs fully irrigated, Examples 27-28
Excerpt: Testing Procedure: The overall objective was to conduct an irrigation management test to study the effects of fungicides and crop enhancement products on yield, WUE, and disease control under full irrigation and deficit irrigation conditions. This was a sprinkler irrigation field study conducted on a deep silt loam soil. The test was set up to specifically quantify the impact of azoxystrobin and acibenzolar-S-methyl on soybean yield and water productivity of soybean under limited (deficit) and fully-irrigated settings. The study utilized a sprinkler irrigation system. The study was replicated three times in an […]. Irrigation control panels, chemical injection pumps, and filters were housed at the irrigation well house to manage irrigation and chemigation events.
Soil water status was monitored throughout the growing season using soil moisture sensors. Soybean variety NK S31-L7 was planted on May 11, 2011 at the rate of 150,000 seed per acre. Testing parameters, and irrigation levels were conducted according to the University of Nebraska experimental procedure [see e.g., (1) Irmak, et. al.] Moisture levels, irrigation levels, evapotranspiration, and plant health were measured throughout the growing season. Climatic variables were measured (air temperature, rainfall, solar and net radiation, relative humidity, rainfall, wind speed and direction) throughout the season. Irrigation for the fully irrigated treatments was scheduled according to need by a climatic water budget using calculated evapotranspiration as a withdrawal and with rainfall and irrigation as deposits. […] Volumetric soil water content was measured in one-foot increments to a depth of 8 ft on an approximately weekly basis throughout the crop season to determine total water use. Crop water use was calculated as the sum of irrigation, precipitation and changes in soil water between the initial and final soil water sampling dates. Water productivity (WUE) was calculated as the crop yield divided by the seasonal water use (Water Productivity (WP)=Yield/ETc). […]

[4] = test system: soybean; assay: Sprinkler irrigation field study on soybean yield and WUE, Table 14 (treatments 31-32)
[5] = test system: soybean; assay: Lateral-move sprinkler irrigation field study on soybean, Examples 29-30; conditions: soybean, sprinkler irrigation
[6] = 60% irrigated deficit, Acibenzolar-S-methyl 10 gai/ha, Azoxy foliar 150 gai/ha + Acibenzolar-S-methyl 10 gai/ha

Structure (SMILES)	% Yield Increase by Product over Untr./50% Irr. [1]	Yield [1]	Yield compared with the control, in words [1]	Yield (% difference from UTC) [2]	Relative number of fine roots (% difference from UTC) [2]	Yield, statistical statement ([3]; 60% Irrigation (deficit))	% Yield Increase over Untr./60% irr. [3, 6]	Yield [3, 6] [Bu./acre]	Yield compared with the untreated, in words ([4]; Azoxystrobin: foliar (2 applications) at 60% & 100% irrigated)	WUE differences, in words ([4]; water deficit regime)	Water productivity, in words [5]	Yield compared with the control, statistical statement ([2]; sub-surface chemigation, abiotic stress, P values <0.001 at the 95th percentile confidence interval)
CN1COCN(Cc2cnc(Cl)s2)/C1=N\[N+](=O)[O-] [TMX, thiamethoxam]	+4% Incr. over Untr./50% Irr.	1916 Kg/Ha	–	–	–	–	–	–	–	–	–	–
CCCC1COC(Cn2cncn2)(c2ccc(Cl)cc2Cl)O1 (stereo not shown) [PPZ, propiconazole]	+3.3% Incr. over Untr./50% Irr.	1906 Kg/Ha	statistically higher than the control	3.3%	39.4† %	–	–	–	–	–	–	–
CSC(=O)c1cccc2nnsc12 [Acibenzolar-S-methyl, acibenzolar-S-methyl]	–	–	–	–	–	significant difference in yield	+1% over Untr./60% irr.	53.1	differences in yield over the untreated	Good WUE differences	increase in water productivity	–
CC(C)(C)[C@@H](O)[C@@H](Cc1ccc(Cl)cc1)n1cncn1 (racemic) [PBZ, paclobutrazol]	+16.6% Incr. over Untr./50% Irr.	2152† Kg/Ha	statistically higher than the control	16.6† %	70.0† %	–	–	–	–	–	–	statistically different from the control
